We go through 9 compounds from ChEMBL document CHEMBL2163341, “Discovery of MK-7725, A Potent, Selective Bombesin Receptor Subtype-3 Agonist for the Treatment of Obesity” (ACS Med Chem Lett, 2012).

SMILES strings stand for the structures.

Data set [1] addresses T1, Bombesin receptor subtype-3 (Homo sapiens, UniProt P32247).
T1 sequence (P32247 whole entry): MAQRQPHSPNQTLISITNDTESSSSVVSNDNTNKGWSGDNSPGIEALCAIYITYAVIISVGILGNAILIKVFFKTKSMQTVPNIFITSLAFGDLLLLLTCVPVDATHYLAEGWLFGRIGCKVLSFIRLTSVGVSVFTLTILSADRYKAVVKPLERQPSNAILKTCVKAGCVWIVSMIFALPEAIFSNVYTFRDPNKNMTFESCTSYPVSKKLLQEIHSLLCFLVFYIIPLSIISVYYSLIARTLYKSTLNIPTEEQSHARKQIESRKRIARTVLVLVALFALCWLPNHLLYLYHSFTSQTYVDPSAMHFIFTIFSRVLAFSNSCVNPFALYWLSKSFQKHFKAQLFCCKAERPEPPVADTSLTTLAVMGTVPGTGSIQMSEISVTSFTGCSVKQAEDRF
Kind of data set: Displacement of [125I]-dY-peptide from human BRS-3 expressed in NFAT-CHO cells after 2 hrs by liquid scintillation counting. It is filed as cell-based. (In general: In a radioligand displacement assay an active substance lowers the binding of a labelled ligand.)

In data set [2] the target is T2, Bombesin receptor subtype-3 (Mus musculus) (UniProt O54798).
T2 sequence (whole entry): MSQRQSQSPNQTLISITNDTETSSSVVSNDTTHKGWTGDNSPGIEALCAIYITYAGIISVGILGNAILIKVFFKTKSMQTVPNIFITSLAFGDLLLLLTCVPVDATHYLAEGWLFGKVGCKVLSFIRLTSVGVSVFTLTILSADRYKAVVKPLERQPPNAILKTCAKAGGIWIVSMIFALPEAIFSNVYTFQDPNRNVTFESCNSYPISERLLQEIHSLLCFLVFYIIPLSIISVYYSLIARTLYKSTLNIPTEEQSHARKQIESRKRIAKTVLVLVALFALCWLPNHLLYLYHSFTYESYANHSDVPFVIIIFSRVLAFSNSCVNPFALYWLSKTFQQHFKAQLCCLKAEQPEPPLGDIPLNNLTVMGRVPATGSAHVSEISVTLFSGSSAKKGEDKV
Kind of data set: Agonist activity at mouse BRS-3 expressed in HEK293AEQ cells assessed as bioluminescence for 10 mins by aequorin bioluminescence assay relative to dY-peptide. It is filed as functional, cell-based.

Data set [3] addresses T3, Bombesin receptor subtype-3 (Mus musculus, UniProt O54798).
T3 sequence (O54798 whole entry): T2 sequence (whole entry)
Kind of data set: Agonist activity at mouse BRS-3 expressed in HEK293AEQ cells assessed as bioluminescence for 10 mins by aequorin bioluminescence assay. The class given is functional, cell-based.

Data set [4] in a line: Plasma clearance in Sprague-Dawley rat at 0.5 mg/kg, iv. It is filed as ADME, organism-based. Set-up: dose 0.5 mg/kg, route intravenous.
The test system of another data set is Rattus norvegicus. Kind of data set: Dose normalized AUC in Sprague-Dawley rat at 1 mg/kg, po. To be noted: in vivo. Set-up: dose 1 mg/kg, route oral. The class given is ADME, organism-based.
Data set [5] concerns the target T4, Nuclear receptor subfamily 1 group I member 2 (Homo sapiens, UniProt O75469).
T4 sequence (O75469 whole entry): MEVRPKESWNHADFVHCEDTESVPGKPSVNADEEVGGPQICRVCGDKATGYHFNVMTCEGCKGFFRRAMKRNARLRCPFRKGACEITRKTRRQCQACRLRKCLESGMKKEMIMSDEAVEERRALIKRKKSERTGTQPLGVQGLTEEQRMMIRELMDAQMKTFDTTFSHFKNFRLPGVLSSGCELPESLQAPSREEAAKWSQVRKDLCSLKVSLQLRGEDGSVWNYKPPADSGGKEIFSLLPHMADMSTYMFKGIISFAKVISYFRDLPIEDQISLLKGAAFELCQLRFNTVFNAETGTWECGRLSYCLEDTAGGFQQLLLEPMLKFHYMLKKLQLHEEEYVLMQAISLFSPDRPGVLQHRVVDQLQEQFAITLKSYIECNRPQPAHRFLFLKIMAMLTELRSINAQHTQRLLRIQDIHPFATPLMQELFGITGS
Nature of the data set: Activation of PXR at 10 uM.

The nature of data set [6]: Oral bioavailability in Sprague-Dawley rat at 1 mg/kg. The class given is ADME, organism-based. To be noted: in vivo.
A further data set concerns Mus musculus. Nature of the data set: Increase of core body temperature in DIO mouse assessed as AUC (1 to 6 hrs) of body temperature changes at 3 mg/kg by fasted temperature PD assay. The class given is functional.
Data set [7] can be described thus: Half life in Sprague-Dawley rat at 0.5 mg/kg, iv. The class given is ADME, organism-based. Set-up: dose 0.5 mg/kg, route intravenous. To be noted: in vivo.
In data set [8] the target is T4, Nuclear receptor subfamily 1 group I member 2. Nature of the data set: Activation of PXR.
The target of data set [9] is T5, Bombesin receptor subtype-3 (Homo sapiens) (UniProt P32247).
T5 sequence (whole entry): T1 sequence (P32247 whole entry)
Kind of data set: Agonist activity at human BRS-3 expressed in HEK293AEQ cells assessed as bioluminescence for 10 mins by aequorin bioluminescence assay relative to dY-peptide. The class given is functional, cell-based.

Data set [10] addresses T1, Bombesin receptor subtype-3. Nature of the data set: Agonist activity at human BRS-3 expressed in HEK293AEQ cells assessed as bioluminescence for 10 mins by aequorin bioluminescence assay. The class given is functional, cell-based.

Broadly, the IC50 is the concentration that inhibits the measured activity by half. The low end stands for greater potency in that assay, the high end for weaker potency in that assay. One may read the EC50 as the concentration that produces a half-maximal response. The clearance is the rate of elimination divided by the concentration. High values mean a high capacity for elimination, low ones a low capacity for elimination. A word on the bioavailability: it is the share of a dose that reaches the circulation, judged against a reference dose that is usually intravenous. Broadly, the half-life is the time in which the quantity being followed falls by half. `CC(C)(O)c1nc(-c2cccc3c2N(S(=O)(=O)c2ccc(C(F)(F)F)cc2)Cc2ccc(C(F)(F)F)nc2N3)no1` yielded an IC50 in [1] of 8.3 nM. Besides, the Activity in [2] was 97%; in [5], 6%; with Mus musculus, 5.22 degreeC.hr. Besides, the EC50 in data set [3] is 95 nM; in data set [8], over 30000 nM. In [4], this compound came in with a clearance of 33 mL/min/kg. For the same compound, the AUC/dose in the data set with Rattus norvegicus is 1.05 µM·kg·h/mg. The compound also yielded a bioavailability in [6] of 100%. The compound further showed a half-life in data set [7] of 2.5 h.

With `CC(C)(C)c1ccc(S(=O)(=O)N2Cc3ccc(C(F)(F)F)nc3Nc3cccc(-c4cccnc4)c32)cc1`, the IC50 in data set [1] was 1.72 nM. The Activity in data set [9] is 99%; in data set [2], 105%; in data set [5], 77%; with Mus musculus, -0.99 degreeC.hr. In addition, the EC50 in data set [3] was found to be 58 nM; in [10], 42 nM; in data set [8], 1800 nM.

Take `Cn1cc(-c2cccc3c2N(S(=O)(=O)c2ccc(C(C)(C)C)cc2)Cc2ccc(C(F)(F)F)nc2N3)cn1`: the IC50 in [1] was found to be 0.76 nM. The Activity in [9] came out at 95%; in data set [2], 110%; in data set [5], 50%; with Mus musculus, 0.2 degreeC.hr. The values for the concentration for a half-maximal effect (EC50) in data set [3], in data set [10] and in data set [8] were 102 nM, 63 nM and 1100 nM, respectively.

With `Cc1ccc2c(c1C)N(S(=O)(=O)c1ccc(C(C)(C)C)cc1)Cc1ccc(C(F)(F)F)nc1N2`, the Activity in [5] is 42%.

In [1], `CC(C)(C)c1ccc(S(=O)(=O)N2Cc3ccc(C(F)(F)F)nc3Nc3cccc(C4CCNCC4)c32)cc1` showed an IC50 of 1.4 nM. In addition, the Activity in data set [9] was 101%; in [2] it was 129%; in [5], 37%; in the data set with Mus musculus it was -0.74 degreeC.hr. Besides, the EC50 in data set [3] came out at 115 nM; in [10], 114 nM; in data set [8] it was 6600 nM.

In [1], `CC(C)(C)c1ccc(S(=O)(=O)N2Cc3ccc(C(F)(F)F)nc3Nc3cccc(-c4ncon4)c32)cc1` registered an IC50 of 1.1 nM. In addition, the Activity was 102% in data set [9], 116% in [2], 53% in data set [5] and 2.1 degreeC.hr in the data set with Mus musculus. The EC50 in [3] was 57 nM; in data set [10] it was 40 nM; in [8], 11800 nM.

For `CC(C)(C)c1ccc(S(=O)(=O)N2Cc3ccc(C(F)(F)F)nc3Nc3cccc(-c4noc(=O)[nH]4)c32)cc1`, the IC50 in [1] came to 29 nM. The Activity was 104% in [9], 105% in data set [2], 42% in [5] and -0.52 degreeC.hr in the data set with Mus musculus. For the same compound, the half-maximal effective concentration (EC50) amounted to 76 nM in data set [3], 77 nM in [10] and 1900 nM in data set [8].

For the compound `CC(C)(O)c1nc(-c2cccc3c2N(S(=O)(=O)c2ccc(OC(F)F)cc2)Cc2ccc(C(F)(F)F)nc2N3)no1`, the half-inhibitory concentration (IC50) in [1] amounted to 18 nM. Also, the results for the Activity (in data set [2]; in [5]; with Mus musculus) were 94%, 22% and 3.31 degreeC.hr, respectively. Further, the concentration for a half-maximal effect (EC50) in data set [3] was 99 nM; in data set [8], 10000 nM.

The compound `CC(C)c1ccc(S(=O)(=O)N2Cc3ccc(C(F)(F)F)nc3Nc3cccc(-c4noc(C(C)(C)O)n4)c32)cc1` displayed a half-inhibitory concentration (IC50) in [1] of 1.7 nM. The results for the Activity (in data set [2]; in data set [5]; in the data set on Mus musculus) were 114%, 80% and 4.93 degreeC.hr, respectively. In addition, the 50% effective concentration (EC50) in data set [3] is 147 nM; in data set [8] it was 2400 nM. Besides, the clearance in data set [4] came out at 49 mL/min/kg. For the same compound, in data set [6], the bioavailability worked out at 8%. The half-life in data set [7] was 1.6 h.
